# Measured values taken from PubChem BioAssay (NCI).
#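 These data come from cells grown in 96-well plates and exposed to compound for 48 hours at five concentrations. Abbreviation: GI50, concentration required for 50% inhibition of growth. At the TGI there is no net growth.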
# Experiments:
# Test in all cases: NCI-60 cell line screen, 48 h
# [1] = system: HS 578T breast
# [2] = system: M14 melanoma
# [3] = system: A498 renal
# [4] = system: PC-3 prostate
# [5] = system: NCI-H23 lung
# [6] = system: SF-295 CNS
# [7] = system: ACHN renal
# [8] = system: RXF 393 renal
# [9] = system: NCI-H522 lung
# [10] = system: HL-60(TB) leukemia
# [11] = system: EKVX NSCLC
# [12] = system: SK-MEL-2 melanoma
# [13] = system: SK-MEL-28 melanoma
# [14] = system: U251 CNS
# [15] = system: TK-10 renal
# [16] = system: SNB-75 CNS
# [17] = system: CCRF-CEM leukemia
# [18] = system: HOP-92 NSCLC
# [19] = system: HT29 colon
# [20] = system: MALME-3M melanoma
# [21] = system: SN12C renal
# [22] = system: OVCAR-8 ovarian
# [23] = system: SK-MEL-5 melanoma
# [24] = system: T-47D breast
# [25] = system: MCF7 breast
# [26] = system: HCT-15 colon
# [27] = system: LOX IMVI melanoma
# [28] = system: UACC-257 melanoma
# [29] = system: HCT-116 colon
# [30] = system: RPMI-8226 leukemia
# [31] = system: UO-31 renal
# [32] = system: SR leukemia
# [33] = system: NCI/ADR-RES ovarian
# [34] = system: IGROV1 ovarian
# [35] = system: BT-549 breast
# [36] = system: MOLT-4 leukemia
# [37] = system: HOP-62 NSCLC
# [38] = system: SF-539 CNS
# [39] = system: NCI-H226 lung
# [40] = system: K-562 leukemia
# [41] = system: SK-OV-3 ovarian
# [42] = system: SW-620 colon
# [43] = system: 786-0 renal
# [44] = system: KM12 colon
# [45] = system: MDA-MB-231 breast
# [46] = system: MDA-MB-435
# [47] = system: OVCAR-3 ovarian
# [48] = system: UACC-62 melanoma
# [49] = system: COLO 205 colon
# [50] = system: OVCAR-5 ovarian
# [51] = system: HCC-2998 colon
# [52] = system: OVCAR-4 ovarian
# [53] = system: NCI-H460 lung
# [54] = system: A549 NSCLC
# [55] = system: SNB-19 CNS
# [56] = system: DU-145 prostate
# [57] = system: SF-268 CNS
structure (smiles),measurement,setting,value
CCN1CCC(Oc2c(C#N)ncc3[nH]c4ncccc4c23)CC1,GI50,[1],13.1 µM
same,TGI,[1],> 50 µM
same,GI50,[2],357 nM
same,TGI,[2],> 50 µM
same,GI50,[3],296 nM
same,TGI,[3],10.5 µM
same,GI50,[4],21 µM
same,TGI,[4],> 50 µM
same,GI50,[5],3.25 µM
same,TGI,[5],> 50 µM
same,GI50,[6],2040 nM
same,TGI,[6],> 50 µM
same,GI50,[7],466 nM
same,TGI,[7],> 50 µM
same,GI50,[8],559 nM
same,TGI,[8],4.16 µM
same,GI50,[9],15 µM
same,TGI,[9],> 50 µM
same,GI50,[10],2900 nM
same,TGI,[10],17.5 µM
same,GI50,[11],14.5 µM
same,TGI,[11],> 50 µM
same,GI50,[12],2480 nM
same,TGI,[12],26.9 µM
same,GI50,[13],16.2 µM
same,TGI,[13],> 50 µM
same,GI50,[14],15.7 µM
same,TGI,[14],> 50 µM
same,GI50,[15],5.21 µM
same,TGI,[15],41.7 µM
same,GI50,[16],12.9 µM
same,TGI,[16],29.8 µM
same,GI50,[17],1840 nM
same,TGI,[17],> 50 µM
same,GI50,[18],> 50 µM
same,TGI,[18],> 50 µM
same,GI50,[19],10.2 µM
same,TGI,[19],> 50 µM
same,GI50,[20],22.9 µM
same,TGI,[20],> 50 µM
same,GI50,[21],14.2 µM
same,TGI,[21],> 50 µM
same,GI50,[22],4.77 µM
same,TGI,[22],> 50 µM
same,GI50,[23],7.12 µM
same,TGI,[23],> 50 µM
same,GI50,[24],26 µM
same,TGI,[24],> 50 µM
same,GI50,[25],403 nM
same,TGI,[25],> 50 µM
same,GI50,[26],9.35 µM
same,TGI,[26],> 50 µM
same,GI50,[27],5.72 µM
same,TGI,[27],> 50 µM
same,GI50,[28],19.9 µM
same,TGI,[28],> 50 µM
same,GI50,[29],7.2 µM
same,TGI,[29],> 50 µM
same,GI50,[30],11 µM
same,TGI,[30],> 50 µM
same,GI50,[31],3.94 µM
same,TGI,[31],> 50 µM
same,GI50,[32],1320 nM
same,TGI,[32],22.3 µM
same,GI50,[33],2780 nM
same,TGI,[33],> 50 µM
same,GI50,[34],15.6 µM
same,TGI,[34],> 50 µM
same,GI50,[35],1960 nM
same,TGI,[35],21 µM
same,GI50,[36],1670 nM
same,TGI,[36],21.2 µM
same,GI50,[37],13.2 µM
same,TGI,[37],> 50 µM
same,GI50,[38],1340 nM
same,TGI,[38],26.2 µM
same,GI50,[39],16.3 µM
same,TGI,[39],> 50 µM
same,GI50,[40],1750 nM
same,TGI,[40],> 50 µM
same,GI50,[41],3.99 µM
same,TGI,[41],> 50 µM
same,GI50,[42],12.2 µM
same,TGI,[42],> 50 µM
same,GI50,[43],1710 nM
same,TGI,[43],> 50 µM
same,GI50,[44],2830 nM
same,TGI,[44],> 50 µM
same,GI50,[45],21.5 µM
same,TGI,[45],> 50 µM
same,GI50,[46],1880 nM
same,TGI,[46],> 50 µM
same,GI50,[47],2550 nM
same,TGI,[47],> 50 µM
same,GI50,[48],18.1 µM
same,TGI,[48],> 50 µM
same,GI50,[49],5.72 µM
same,TGI,[49],19.5 µM
same,GI50,[50],19.3 µM
same,TGI,[50],> 50 µM
same,GI50,[51],20.3 µM
same,TGI,[51],> 50 µM
same,GI50,[52],7.88 µM
same,TGI,[52],> 50 µM
same,GI50,[53],7.33 µM
same,TGI,[53],> 50 µM
same,GI50,[54],14.1 µM
same,TGI,[54],> 50 µM
same,GI50,[55],14.7 µM
same,TGI,[55],> 50 µM
same,GI50,[56],10.9 µM
same,TGI,[56],> 50 µM
same,GI50,[57],16.2 µM
same,TGI,[57],> 50 µM
